Earlier results, collected in patent publication US20210274780A1, “Disinfectant Composition Against the Novel Wuhan Corona Virus COVID-19” (priority 2020, published 2021).

In the case of [H]/N=C(\N/C(=N/[H])NCCCCCCNC(=N)NC(=N)Nc1ccc(Cl)cc1)Nc1ccc(Cl)cc1 [Chlorhexidine], the effectiveness against polioviruses (polioviruses) is given as “ineffective”, the effectiveness against adenoviruses (adenoviruses) is given as “ineffective” and the effective concentration (Gram-positive bacteria) is given as at least 1 µg/L.
